Measured values taken from ChEMBL document CHEMBL5528067, “From Synergy to Monotherapy: Discovery of Novel 2,4,6-Trisubstituted Triazine Hydrazone Derivatives with Potent Antifungal Potency In Vitro and In Vivo” (J Med Chem, 2024).
Converted amounts (≈) assume the structure as drawn. The source made the active and inactive calls. No cut-off for these calls is given here.

What was measured:
Candida albicans [1] = test: Antifungal activity against FCZ-resistant Candida albicans strain 901 assessed as growth inhibition in presence of fluconazole measured after 48 hrs incubation by CLSI based micro-dilution broth method; type: functional
Candida albicans [2] = test: Synergistic antifungal activity against FCZ-resistant Candida albicans strain 901 assessed as fractional inhibitory concentration index measured after 48 hrs in presence of FCZ by CLSI based micro-dilution broth method; type: functional
Candida albicans [3] = test: Antifungal activity against FCZ-resistant Candida albicans strain 904 assessed as growth inhibition measured after 48 hrs incubation by CLSI based micro-dilution broth method; type: functional
Candida albicans [4] = test: Antifungal activity against FCZ-resistant Candida albicans strain 904 assessed as growth inhibition in presence of fluconazole measured after 48 hrs incubation by CLSI based micro-dilution broth method; type: functional
Candida albicans [5] = test: Synergistic antifungal activity against FCZ-resistant Candida albicans strain 904 assessed as fractional inhibitory concentration index measured after 48 hrs in presence of FCZ by CLSI based micro-dilution broth method; type: functional
Candida albicans [6] = test: Antifungal activity against FCZ-resistant Candida albicans SC5314 assessed as growth inhibition measured after 48 hrs incubation by CLSI based micro-dilution broth method; type: functional
Candida albicans [7] = test: Antifungal activity against FCZ-resistant Candida albicans 10231 assessed as growth inhibition measured after 48 hrs incubation by CLSI based micro-dilution broth method; type: functional
Cryptococcus neoformans [8] = test: Antifungal activity against Cryptococcus neoformans 32609 assessed as growth inhibition measured after 48 hrs incubation by CLSI based micro-dilution broth method; type: functional
Nakaseomyces glabratus [9] = test: Antifungal activity against Candida glabrata 537 assessed as growth inhibition measured after 48 hrs incubation by CLSI based micro-dilution broth method; type: functional
Pichia kudriavzevii [10] = test: Antifungal activity against Candida krusei 4996 assessed as growth inhibition measured after 48 hrs incubation by CLSI based micro-dilution broth method; type: functional
Candida parapsilosis = test: Antifungal activity against Candida parapsilosis 22019 assessed as growth inhibition measured after 48 hrs incubation by CLSI based micro-dilution broth method; type: functional; settings: Lodderomyces parapsilosis
Candida tropicalis = test: Antifungal activity against Candida tropicalis 8915 assessed as growth inhibition measured after 48 hrs incubation by CLSI based micro-dilution broth method; type: functional
[Candida] auris [11] = Antifungal activity against FCZ-resistant Candida auris 918 assessed as growth inhibition measured after 48 hrs incubation by CLSI based micro-dilution broth method; type: functional; settings: Candidozyma auris
[Candida] auris [12] = Antifungal activity against FCZ-resistant Candida auris 919 assessed as growth inhibition measured after 48 hrs incubation by CLSI based micro-dilution broth method; type: functional; settings: Candidozyma auris
[13] = Cytotoxicity against human HUVEC cells assessed as cell viability measured after 24 hrs by CCK-8 assay; type: toxicity, cell-based
[14] = Cytotoxicity against human HUVEC cells assessed as cell viability at 16 microg/ml measured after 24 hrs by CCK-8 assay relative to control; type: toxicity, cell-based; settings: at 16 µg/mL, read-out: Activity
[15] = Hemolytic activity in rabbit Red blood cell assessed as hemolysis rate at 64 microg/ml incubated for 1 hr; type: toxicity, cell-based, Oryctolagus cuniculus, Erythrocyte; settings: red blood cells, at 64 µg/mL, read-out: Activity
Candida albicans [16] = test: In vivo antifungal activity against Candida albicans SC5314 infected in C57BL/6J mouse assessed as reduction in fungal burden in kidney at 10 mg/kg, po treated once a day for 2 days; type: functional, organism-based; settings: time 2.0 day
Candida albicans [17] = test: Antifungal activity against FCZ-resistant Candida albicans strain 901 assessed as growth inhibition measured after 48 hrs incubation by CLSI based micro-dilution broth method; type: functional
Candida albicans [18] = test: Antifungal activity against FCZ-resistant Candida albicans strains assessed as growth inhibition measured after 48 hrs incubation by CLSI based micro-dilution broth method; type: functional
Candida albicans [19] = test: Antifungal activity against FCZ-resistant Candida albicans strains assessed as growth inhibition in presence of (E)-2-((4,6-Bis((4-fluorobenzyl)amino)-1,3,5-triazin-2-yl)hydrazineylidene)methyl)-4-nitrophenol measured after 48 hrs incubation by CLSI based micro-dilution broth method; type: functional
Candida albicans [20] = test: Antifungal activity against FCZ-resistant Candida albicans SC5314 assessed as growth inhibition at 4 microg/ml measured at 12 hrs incubation by time growth assay; type: functional, organism-based; settings: dose 4.0 µg/ml
Nakaseomyces glabratus [21] = test: Antifungal activity against FCZ-resistant Candida glabrata 537 assessed as growth inhibition at 4 microg/ml measured at 12 hrs incubation by time growth assay; type: functional, organism-based; settings: dose 4.0 µg/ml
Cryptococcus neoformans [22] = test: Antifungal activity against FCZ-resistant Cryptococcus neoformans 32609 assessed as growth inhibition at 1 microg/ml measured at 24 hrs incubation by time growth assay; type: functional, organism-based; settings: dose 1.0 µg/ml
Pichia kudriavzevii [23] = test: Antifungal activity against FCZ-resistant Candida krusei 4996 assessed as growth inhibition at 32 microg/ml measured at 24 hrs incubation by time growth assay; type: functional, organism-based; settings: dose 32.0 µg/ml
[24] = target: T1, Lanosterol 14-alpha demethylase (Candida albicans (strain SC5314 / ATCC MYA-2876) (Yeast), UniProt P10613); test: Inhibition of CYP51 in Candida albicans SC5314 assessed as decrease in ergosterol biosynthesis at 4 microg/ml measured after 8 hrs by GC-MS analysis (reference value: 88.32%); set-up: scale not given: the % may be the effect or the level left; settings: at 4 µg/mL
T1 sequence (P10613 whole entry): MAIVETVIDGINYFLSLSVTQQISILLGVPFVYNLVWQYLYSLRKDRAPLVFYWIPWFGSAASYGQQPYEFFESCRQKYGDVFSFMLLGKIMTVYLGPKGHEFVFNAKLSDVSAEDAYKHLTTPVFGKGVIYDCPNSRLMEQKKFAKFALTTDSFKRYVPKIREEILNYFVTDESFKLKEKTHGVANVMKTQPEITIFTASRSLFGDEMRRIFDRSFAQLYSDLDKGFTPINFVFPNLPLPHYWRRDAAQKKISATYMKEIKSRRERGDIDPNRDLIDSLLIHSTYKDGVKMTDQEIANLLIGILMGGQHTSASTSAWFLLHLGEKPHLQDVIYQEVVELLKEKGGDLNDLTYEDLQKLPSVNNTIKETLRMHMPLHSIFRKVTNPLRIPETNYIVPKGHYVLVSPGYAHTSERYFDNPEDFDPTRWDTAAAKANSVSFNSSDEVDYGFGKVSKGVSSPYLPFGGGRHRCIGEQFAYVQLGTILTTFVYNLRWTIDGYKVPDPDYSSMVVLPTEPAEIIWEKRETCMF

[25] = target: T1, Lanosterol 14-alpha demethylase; test: Inhibition of CYP51 in Candida albicans SC5314 assessed as accumulation of eburicol at 4 microg/ml measured after 8 hrs by GC-MS analysis; settings: dose 4 µg/ml
[26] = target: T1, Lanosterol 14-alpha demethylase; test: Inhibition of CYP51 in Candida albicans SC5314 assessed as accumulation of obtusifoliol at 4 microg/ml measured after 8 hrs by GC-MS analysis; settings: dose 4 µg/ml
[27] = target: T1, Lanosterol 14-alpha demethylase; test: Inhibition of CYP51 in Candida albicans SC5314 assessed as accumulation of 14alpha-methylfecosterol at 4 microg/ml measured after 8 hrs by GC-MS analysis; settings: dose 4 µg/ml
Candida albicans [28] = test: In vivo antifungal activity against Candida albicans SC5314 infected in C57BL/6J mouse assessed as reduction in fungal burden in kidney at 0.5 mg/kg, po treated once a day for 2 days; type: functional, organism-based; settings: time 2.0 day
[29] = Hemolytic activity in rabbit Red blood cell assessed as hemolysis rate at 8 microg/ml incubated for 1 hr; type: toxicity, cell-based, Oryctolagus cuniculus, Erythrocyte; settings: red blood cells, at 8 µg/mL, read-out: Activity

With `NCCOCCOCCNC(=O)Cc1ccc(Nc2nc(NCc3ccc(F)cc3)nc(NCC3CCCCC3)n2)cc1` the MIC80 (Candida albicans [1]) was 16 µg/mL, the “fractional inhibitory concentration index (FICI)” value (Candida albicans [2]) was 0.63 and the MIC80 (Candida albicans [3]) was 32 µg/mL (≈ 53.8 µM). For the same compound, the MIC80 (Candida albicans [4]) was 8 µg/mL, the “fractional inhibitory concentration index (FICI)” value (Candida albicans [5]) was 0.38 and the MIC80 (Candida albicans [6]) was 16 µg/mL (≈ 26.9 µM). It also gave an MIC80 (Candida albicans [7]) of 32 µg/mL (≈ 53.8 µM), an MIC80 (Cryptococcus neoformans [8]) of 16 µg/mL (≈ 26.9 µM) and an MIC80 (Nakaseomyces glabratus [9]) of 32 µg/mL (≈ 53.8 µM). For the same compound, the MIC80 (Pichia kudriavzevii [10]) was 32 µg/mL (≈ 53.8 µM), the MIC80 (Candida parapsilosis) was 32 µg/mL (≈ 53.8 µM) and the MIC80 (Candida tropicalis) was 32 µg/mL (≈ 53.8 µM). The MIC80 ([Candida] auris [11]) was 32 µg/mL (≈ 53.8 µM), the MIC80 ([Candida] auris [12]) was 32 µg/mL (≈ 53.8 µM) and the IC50 at 24 h [13] was 48.2 µg/mL (≈ 81.1 µM). The viability at 24 h, 16 microg/ml [14] was 89.8%, the hemolysis at 1 h, 64 microg/ml [15] was 3.48% and the Activity (Candida albicans [16]) was “Active”.
With `OC(Cn1cncn1)(Cn1cncn1)c1ccc(F)cc1F` [FLUCONAZOLE] the MIC80 (Candida albicans [17]) was > 64 µg/mL, the MIC80 (Candida albicans [3]) was > 64 µg/mL and the MIC80 (Candida albicans [6]) was 0.5 µg/mL (≈ 1.63 µM). The MIC80 (Candida albicans [7]) was 64 µg/mL (≈ 209 µM), the MIC80 (Cryptococcus neoformans [8]) was 2 µg/mL (≈ 6.53 µM) and the MIC80 (Nakaseomyces glabratus [9]) was 1 µg/mL (≈ 3.27 µM). It also gave an MIC80 (Pichia kudriavzevii [10]) of 64 µg/mL (≈ 209 µM), an MIC80 (Candida parapsilosis) of 2 µg/mL (≈ 6.53 µM) and an MIC80 (Candida tropicalis) of 0.5 µg/mL (≈ 1.63 µM). The MIC80 ([Candida] auris [11]) was > 64 µg/mL, the MIC80 ([Candida] auris [12]) was > 64 µg/mL and the MIC80 (Candida albicans [18]) was > 64 µg/mL. The MIC80 (Candida albicans [19]) was 1 µg/mL, the Activity (Candida albicans [20]) was “Active” and the Activity (Nakaseomyces glabratus [21]) was “inactive”. The Activity (Cryptococcus neoformans [22]) was “inactive”, the Activity (Pichia kudriavzevii [23]) was “Active” and the Activity [24] was 2.91%. For the same compound, the Activity [25] was “Active”, the Activity [26] was “Active” and the Activity [27] was “Active”. For the same compound, the viability at 24 h, 16 microg/ml [14] was 82.8%, the hemolysis at 1 h, 64 microg/ml [15] was 23.9% and the Activity (Candida albicans [28]) was “Active”.
In the case of `O=[N+]([O-])c1ccc(O)c(/C=N/Nc2nc(N3CCOCC3)nc(N3CCOCC3)n2)c1`, the MIC80 (Candida albicans [6]) was > 64 µg/mL, the MIC80 (Candida albicans [7]) was > 64 µg/mL and the MIC80 (Cryptococcus neoformans [8]) was > 64 µg/mL. The MIC80 (Nakaseomyces glabratus [9]) was > 64 µg/mL, the MIC80 (Pichia kudriavzevii [10]) was > 64 µg/mL and the MIC80 (Candida parapsilosis) was > 64 µg/mL. The MIC80 (Candida tropicalis) was > 64 µg/mL, the MIC80 ([Candida] auris [11]) was > 64 µg/mL and the MIC80 ([Candida] auris [12]) was > 64 µg/mL.
Compound `COc1ccc(Nc2nc(NCc3ccc(F)cc3)nc(N/N=C/c3cc([N+](=O)[O-])ccc3O)n2)cc1` has an MIC80 (Candida albicans [6]) of 2 µg/mL (≈ 3.96 µM), an MIC80 (Candida albicans [7]) of 16 µg/mL (≈ 31.7 µM) and an MIC80 (Cryptococcus neoformans [8]) of 2 µg/mL (≈ 3.96 µM). The MIC80 (Nakaseomyces glabratus [9]) was 0.5 µg/mL (≈ 0.991 µM), the MIC80 (Pichia kudriavzevii [10]) was 1 µg/mL (≈ 1.98 µM) and the MIC80 (Candida parapsilosis) was 8 µg/mL (≈ 15.9 µM). The MIC80 (Candida tropicalis) was 2 µg/mL (≈ 3.96 µM), the MIC80 ([Candida] auris [11]) was 32 µg/mL (≈ 63.4 µM) and the MIC80 ([Candida] auris [12]) was 32 µg/mL (≈ 63.4 µM).
Compound `C[C@@H]1[C@H](O)[C@@H](C)/C=C/C=C/C=C/C=C/C=C/C=C/C=C/[C@H](O[C@@H]2O[C@H](C)[C@@H](O)[C@H](N)[C@@H]2O)C[C@@H]2O[C@](O)(C[C@@H](O)C[C@@H](O)[C@H](O)CC[C@@H](O)C[C@@H](O)CC(=O)O[C@H]1C)C[C@H](O)[C@H]2C(=O)O` [AMPHOTERICIN B] has a hemolysis at 1 h, 8 microg/ml [29] of 50.7%.
In the case of `O=[N+]([O-])c1cccc(/C=N/Nc2nc(NCc3ccc(F)cc3)nc(NCc3ccc(F)cc3)n2)c1O`, the MIC80 (Candida albicans [17]) was 2 µg/mL (≈ 3.95 µM), the MIC80 (Candida albicans [1]) was 0.25 µg/mL and the “fractional inhibitory concentration index (FICI)” value (Candida albicans [2]) was 0.25. For the same compound, the MIC80 (Candida albicans [3]) was 1 µg/mL (≈ 1.97 µM), the MIC80 (Candida albicans [4]) was 0.25 µg/mL and the “fractional inhibitory concentration index (FICI)” value (Candida albicans [5]) was 0.38. It also gave an MIC80 (Candida albicans [6]) of 8 µg/mL (≈ 15.8 µM), an MIC80 (Candida albicans [7]) of 32 µg/mL (≈ 63.2 µM) and an MIC80 (Cryptococcus neoformans [8]) of 1 µg/mL (≈ 1.97 µM). The MIC80 (Nakaseomyces glabratus [9]) was 1 µg/mL (≈ 1.97 µM), the MIC80 (Pichia kudriavzevii [10]) was 2 µg/mL (≈ 3.95 µM) and the MIC80 (Candida parapsilosis) was 2 µg/mL (≈ 3.95 µM). The MIC80 (Candida tropicalis) was 2 µg/mL (≈ 3.95 µM), the MIC80 ([Candida] auris [11]) was 4 µg/mL (≈ 7.9 µM) and the MIC80 ([Candida] auris [12]) was 32 µg/mL (≈ 63.2 µM).
Work on `O=[N+]([O-])c1ccc(O)c(/C=N/Nc2nc(NCc3ccc(F)cc3)nc(Nc3ccc(F)cc3)n2)c1` yielded an MIC80 (Candida albicans [6]) of 2 µg/mL (≈ 4.06 µM), an MIC80 (Candida albicans [7]) of 8 µg/mL (≈ 16.2 µM) and an MIC80 (Cryptococcus neoformans [8]) of 2 µg/mL (≈ 4.06 µM). For the same compound, the MIC80 (Nakaseomyces glabratus [9]) was 0.5 µg/mL (≈ 1.02 µM), the MIC80 (Pichia kudriavzevii [10]) was 1 µg/mL (≈ 2.03 µM) and the MIC80 (Candida parapsilosis) was 8 µg/mL (≈ 16.2 µM). For the same compound, the MIC80 (Candida tropicalis) was 2 µg/mL (≈ 4.06 µM), the MIC80 ([Candida] auris [11]) was 8 µg/mL (≈ 16.2 µM) and the MIC80 ([Candida] auris [12]) was 32 µg/mL (≈ 65 µM).
